pIC50: −log10 of the molar value.
What was measured:
Assay in all cases: IC50 on cell viability, Cell Counting Kit-8
Format in all cases: cell-based
[1] = tested on: Colo 201; conditions: Homo sapiens; code 5, Colo 201, Colorectal Adenocarcinoma; cell viability 120 h after administration
Method: (§1) A panel of 36 human cell lines were first tested in terms of population doubling time and growth curves to determine the conditions for further assays. The cells were also tested to determine the dose of radiation that produces 50% cell viability (D50). […] Cell viability was determined 120 h after the administration of the compounds using the Cell Counting Kit-8 (Dojindo Molecular Technologies, Inc, Rockville, Md.). In the experiments, 0.1% SDS and 1% DMSO were used as positive and negative controls, respectively. Final concentrations of the compounds used in the experiments are listed below in Table 5: […]

[2] = tested on: MSTO-211H; conditions: Homo sapiens; code 21, MSTO-211H, Lung Biphasic Mesothelioma; cell viability 120 h after administration
Method: as §1

[3] = tested on: SK-N-AS; conditions: Homo sapiens; code 17, SK-N-AS, Brain Neuroblastoma; cell viability 120 h after administration
Method: as §1

[4] = tested on: MNNG-HOS; conditions: Homo sapiens; code 29, MNNG-HOS, Bone Osteosarcoma; cell viability 120 h after administration
Method: as §1

[5] = tested on: SW-872; conditions: Homo sapiens, SW872; code 18, SW-872, Connective tissue Fibrosarcoma; cell viability 120 h after administration
Method: as §1

[6] = tested on: LN-18; conditions: Homo sapiens; code 10, LN-18, Brain Gliblastoma; cell viability 120 h after administration
Method: as §1

[7] = tested on: SK-ES-1; conditions: Homo sapiens, SK-ES1; code 30, SK-ES-1, Bone Osteosarcoma; cell viability 120 h after administration
Method: as §1

[8] = tested on: C32; conditions: Homo sapiens; code 24, C32, Skin Melanoma; cell viability 120 h after administration
Method: as §1

[9] = tested on: SK-MEL-2; conditions: Homo sapiens; code 25, SK-MEL-2, Skin Melanoma; cell viability 120 h after administration
Method: as §1

[10] = tested on: HT-29; conditions: Homo sapiens; code 8, HT-29, Colorectal Adenocarcinoma; cell viability 120 h after administration
Method: as §1

[11] = tested on: A-172; conditions: Homo sapiens; code 12, A-172, Brain Gliblastoma; cell viability 120 h after administration
Method: as §1

[12] = tested on: KHOS-NP; conditions: Homo sapiens; code 28, KHOS-NP, Bone Osteosarcoma; cell viability 120 h after administration
Method: as §1

[13] = tested on: NCI-H4BO; conditions: Homo sapiens; code 20, NCI-H4BO, Lung Carcinoma; cell viability 120 h after administration
Method: as §1

[14] = tested on: A375; conditions: Homo sapiens, A-375; code 23, A375, Skin Melanoma; cell viability 120 h after administration
Method: as §1

[15] = tested on: BT-20; conditions: Homo sapiens; code 1, BT-20, Breast Carcinoma; cell viability 120 h after administration
Method: as §1

[16] = tested on: IMR-32; conditions: Homo sapiens; code 15, IMR-32, Brain Neuroblastoma; cell viability 120 h after administration
Method: as §1

[17] = tested on: A549; conditions: Homo sapiens; code 22, A549, Lung Carcinoma; cell viability 120 h after administration
Method: as §1

[18] = tested on: Panc-1; conditions: Homo sapiens; code 34, Panc-1, Pancreas Carcinoma Epithiloid; cell viability 120 h after administration
Method: as §1

[19] = tested on: MEWO; conditions: Homo sapiens; code 26, MEWO, Skin Melanoma; cell viability 120 h after administration
Method: as §1

[20] = tested on: A-204; conditions: Homo sapiens, A204; code 35, A-204, Muscle Rhabdomyosarcoma; cell viability 120 h after administration
Method: as §1

[21] = tested on: BxPC-3; conditions: Homo sapiens; code 31, BxPC-3, Pancreas Adenocarcinoma; cell viability 120 h after administration
Method: as §1

[22] = tested on: U-38 MG; conditions: Homo sapiens; code 13, U-38 MG, Brain Gliblastoma/astrocitoma; cell viability 120 h after administration
Method: as §1

[23] = tested on: A-673; conditions: Homo sapiens, A673; code 36, A-673, Muscle Rhabdomyosarcoma; cell viability 120 h after administration
Method: as §1

[24] = tested on: HBL-52; conditions: Homo sapiens; code 19, HBL-52, Brain Meningioma; cell viability 120 h after administration
Method: as §1

[25] = tested on: MML-1; conditions: Homo sapiens; code 27, MML-1, Skin Melanoma; cell viability 120 h after administration
Method: as §1

[26] = tested on: LN229; conditions: Homo sapiens, LN-229; code 11, LN229, Brain Gliblastoma; cell viability 120 h after administration
Method: as §1

[27] = tested on: HCT-15; conditions: Homo sapiens; code 7, HCT-15, Colorectal Adenocarcinoma; cell viability 120 h after administration
Method: as §1

[28] = tested on: MDA-MB-231; conditions: Homo sapiens; code 3, MDA-MB-231, Breast Adenocarcinoma; cell viability 120 h after administration
Method: as §1

[29] = tested on: SH-SY5Y; conditions: Homo sapiens; code 16, SH-SY5Y, Brain Neuroblastoma; cell viability 120 h after administration
Method: as §1

[30] = tested on: CHP-126; conditions: Homo sapiens; code 14, CHP-126, Brain Neuroblastoma; cell viability 120 h after administration
Method: as §1

Row | pIC50 [1] | pIC50 [3] | pIC50 [5] | pIC50 [7] | pIC50 [9] | pIC50 [10] | pIC50 [13] | pIC50 [14] | pIC50 [15] | pIC50 [17] | pIC50 [18] | Structure (SMILES) | pIC50 [2] | pIC50 [4] | pIC50 [6] | pIC50 [8] | pIC50 [11] | pIC50 [12] | pIC50 [16] | pIC50 [19] | pIC50 [20] | further results
1 | 4.53 | 4.54 | 4.59 | 4.37 | 4.76 | 4.55 | 4.78 | 4.12 | 4.01 | 4.59 | 4.30 | COc1cc(/C=C/c2ccc(O)cc2)cc(OC)c1 [t-PTER, trans-3,5-dimethoxy-4′-hydroxystilbene] | 4.91 | 4.91 | 4.74 | 4.52 | 4.53 | 4.59 | 4.37 | 4.41 | 4.63 | pIC50 [21]: 4.51; pIC50 [22]: 4.53; pIC50 [23]: 5.24; pIC50 [24]: 4.48; pIC50 [25]: 4.77; pIC50 [26]: 4.84; pIC50 [27]: 4.31; pIC50 [28]: 4.20; pIC50 [29]: 4.50; pIC50 [30]: 5.85
2 | 4.43 | 4.17 | 4.09 | 4.56 | 4.97 | 4.55 | 4.94 | 4.60 | 4.18 | 4.79 | 4.48 | Oc1ccc(/C=C/c2cc(O)cc(O)c2)cc1 [RI, trans-3,5,4′-trihydroxystilbene, reference compound] | 5.20 | 4.93 | 4.55 | 4.73 | 4.32 | 4.70 | 4.37 | 4.77 | 4.72 | pIC50 [21]: 4.87; pIC50 [22]: 5.20; pIC50 [23]: 5.17; pIC50 [24]: 4.54; pIC50 [25]: 4.99; pIC50 [26]: 4.95; pIC50 [27]: < 4.00; pIC50 [28]: 4.82; pIC50 [29]: 4.58; pIC50 [30]: 4.57
3 | 4.74 | 4.70 | 5.45 | 5.09 | 4.94 | 4.73 | 5.00 | 4.71 | 5.04 | 4.87 | 4.20 | O=c1c(O)c(-c2ccc(O)c(O)c2)oc2cc(O)cc(O)c12 [QUER, quercetin] | 4.70 | 5.00 | 5.01 | 4.66 | 5.00 | 4.80 | 4.70 | 5.07 | 4.74 | pIC50 [21]: 4.80; pIC50 [22]: 5.32; pIC50 [23]: 5.39; pIC50 [24]: 4.64; pIC50 [25]: 4.97; pIC50 [26]: 5.09; pIC50 [27]: 4.91; pIC50 [28]: 4.68; pIC50 [29]: 5.36; pIC50 [30]: 4.72

Reference: patent US20110136751A1, “Use of Polyphenols in the Treatment of Cancer” (Green Molecular, priority 2009, published 2011)
